Assay results reported in ChEMBL document CHEMBL3797029, “Purinylpyridinylamino-based DFG-in/αC-helix-out B-Raf inhibitors: Applying mutant versus wild-type B-Raf selectivity indices for compound profiling” (Bioorg Med Chem, 2016).

Columns and labels:
[1] = molecular target: T1, Serine/threonine-protein kinase B-raf (Homo sapiens, UniProt P15056); test: Inhibition of wild type B-Raf in human MIAPaCa2 cells assessed as reduction in ERK phosphorylation preincubated for 1 hr by Western blot method; format: cell-based, MIA PaCa-2
T1 sequence (P15056 whole entry): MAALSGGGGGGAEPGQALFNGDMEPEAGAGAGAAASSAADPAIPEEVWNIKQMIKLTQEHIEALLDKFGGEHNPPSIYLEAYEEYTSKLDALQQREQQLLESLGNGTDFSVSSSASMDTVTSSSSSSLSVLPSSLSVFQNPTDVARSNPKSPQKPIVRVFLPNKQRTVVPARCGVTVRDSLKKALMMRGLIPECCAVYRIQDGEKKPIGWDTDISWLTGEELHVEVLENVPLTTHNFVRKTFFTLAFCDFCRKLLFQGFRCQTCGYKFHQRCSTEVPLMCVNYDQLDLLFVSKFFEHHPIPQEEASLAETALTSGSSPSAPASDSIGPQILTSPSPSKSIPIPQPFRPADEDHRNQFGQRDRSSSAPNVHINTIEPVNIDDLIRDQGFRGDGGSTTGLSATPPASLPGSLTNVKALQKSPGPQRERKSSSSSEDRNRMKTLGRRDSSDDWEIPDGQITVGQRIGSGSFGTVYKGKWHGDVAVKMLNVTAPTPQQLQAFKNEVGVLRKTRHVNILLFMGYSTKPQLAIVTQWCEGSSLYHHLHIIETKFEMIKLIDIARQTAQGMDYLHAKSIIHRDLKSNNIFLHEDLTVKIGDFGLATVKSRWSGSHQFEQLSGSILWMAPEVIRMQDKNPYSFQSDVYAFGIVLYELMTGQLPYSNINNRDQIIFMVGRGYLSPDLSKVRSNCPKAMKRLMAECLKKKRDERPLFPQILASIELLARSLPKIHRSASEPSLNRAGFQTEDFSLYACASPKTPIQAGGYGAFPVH

MIA PaCa-2 = test: Selectivity index, ratio of EC50 for wild type B-Raf in human MIAPaCa2 cells to IC50 for B-Raf V600E mutant in human A375 cells; format: cell-based
[2] = molecular target: T1, Serine/threonine-protein kinase B-raf; test: Inhibition of wild type B-Raf (unknown origin) assessed as MEK1 phosphorylation using MEK1-Avitag as substrate after 1 hr by HTRF assay
[3] = molecular target: T2, Serine/threonine-protein kinase B-raf (Homo sapiens, UniProt P15056, V600E); test: Inhibition of B-Raf V600E mutant in human A375 cells assessed as ERK phosphorylation preincubated for 1 hr by Western blot method; format: cell-based, A-375
T2 sequence (P15056 2-766 V600E limits assumed): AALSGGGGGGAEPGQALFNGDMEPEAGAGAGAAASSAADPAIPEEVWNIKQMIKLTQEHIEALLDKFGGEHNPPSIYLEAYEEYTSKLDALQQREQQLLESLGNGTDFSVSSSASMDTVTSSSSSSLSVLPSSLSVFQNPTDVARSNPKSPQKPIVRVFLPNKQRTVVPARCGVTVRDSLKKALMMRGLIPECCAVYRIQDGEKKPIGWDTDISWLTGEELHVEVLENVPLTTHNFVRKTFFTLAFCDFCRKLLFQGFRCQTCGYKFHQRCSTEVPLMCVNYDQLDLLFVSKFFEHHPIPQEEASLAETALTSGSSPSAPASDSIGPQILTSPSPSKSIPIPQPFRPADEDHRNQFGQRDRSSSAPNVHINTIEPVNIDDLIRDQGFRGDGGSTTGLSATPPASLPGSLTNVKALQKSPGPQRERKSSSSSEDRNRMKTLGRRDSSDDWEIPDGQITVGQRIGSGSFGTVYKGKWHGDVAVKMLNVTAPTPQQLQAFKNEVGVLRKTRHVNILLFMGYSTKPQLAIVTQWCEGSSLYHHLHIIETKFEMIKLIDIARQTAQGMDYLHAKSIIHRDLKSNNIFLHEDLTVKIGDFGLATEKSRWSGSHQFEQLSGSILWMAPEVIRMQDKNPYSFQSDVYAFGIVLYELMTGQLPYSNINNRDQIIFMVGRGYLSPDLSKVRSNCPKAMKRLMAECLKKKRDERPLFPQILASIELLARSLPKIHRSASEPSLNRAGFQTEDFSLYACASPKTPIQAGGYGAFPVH

[4] = molecular target: T2, Serine/threonine-protein kinase B-raf; test: Inhibition of B-Raf V600E mutant (unknown origin) assessed as MEK1 phosphorylation using MEK1-Avitag as substrate after 1 hr by HTRF assay

| Structure (SMILES) | EC50 [1] | Ratio (MIA PaCa-2) | IC50 [2] | IC50 [3] | IC50 [4] |
| --- | --- | --- | --- | --- | --- |
| CCCS(=O)(=O)Nc1ccc(F)c(Nc2ncccc2-c2ncnc3[nH]cnc23)c1F | 936 nM | 39 | 12 nM | 24 nM | 9 nM |
| Cc1n[nH]c(C)c1S(=O)(=O)Nc1ccc(F)c(Nc2ncccc2-c2ncnc3[nH]cnc23)c1F |  |  |  | > 1000 nM | 216 nM |
| O=S(=O)(Nc1ccc(F)c(Nc2ncccc2-c2ncnc3[nH]cnc23)c1F)c1nccs1 | 783 nM | 25 | 2 nM | 31 nM | 1 nM |
| O=S(=O)(Nc1ccc(F)c(Nc2ncccc2-c2ncnc3[nH]cnc23)c1F)N1CCCC1 | 2070 nM | 47 | 31 nM | 44 nM | 2 nM |
| O=S(=O)(Nc1ccc(F)c(Nc2ncccc2-c2ncnc3[nH]cnc23)c1F)c1ccccc1 | 2290 nM | 82 | 17 nM | 28 nM | 7 nM |
| O=S(=O)(Nc1ccc(F)c(Nc2ncccc2-c2ncnc3[nH]cnc23)c1F)C1CCOC1 (stereo not given) | 1480 nM | 48 | 26 nM | 31 nM | 5 nM |
| O=S(=O)(Nc1ccc(F)c(Nc2ncccc2-c2ncnc3[nH]cnc23)c1F)c1ccccn1 | 7940 nM | 45 | 41 nM | 177 nM | 21 nM |
| CCN(CC)S(=O)(=O)Nc1ccc(F)c(Nc2ncccc2-c2ncnc3[nH]cnc23)c1F | 9910 nM | 16 | 165 nM | 603 nM | 57 nM |
| O=S(=O)(Nc1ccc(F)c(Nc2ncccc2-c2ncnc3[nH]cnc23)c1F)C1CCCC1 | 1800 nM | 164 | 21 nM | 11 nM | 2 nM |
| O=S(=O)(Nc1ccc(F)c(Nc2ncccc2-c2ncnc3[nH]cnc23)c1F)C1CCOCC1 |  |  | 179 nM | 356 nM | 31 nM |
| O=S(=O)(Nc1ccc(F)c(Nc2ncccc2-c2ncnc3[nH]cnc23)c1F)c1cccnc1 | 786 nM | 79 | 1 nM | 10 nM | 1 nM |
| O=S(=O)(CC1CC1)Nc1ccc(F)c(Nc2ncccc2-c2ncnc3[nH]cnc23)c1F | 2140 nM | 65 | 26 nM | 33 nM | 8 nM |
| O=S(=O)(Nc1ccc(F)c(Nc2ncccc2-c2ncnc3[nH]cnc23)c1F)N1CC[C@H](O)C1 |  |  | 122 nM | 201 nM | 9 nM |
| CC(C)S(=O)(=O)Nc1ccc(F)c(Nc2ncccc2-c2ncnc3[nH]cnc23)c1F | 1540 nM | 34 | 66 nM | 45 nM | 14 nM |
| O=S(=O)(Nc1ccc(F)c(Nc2ncccc2-c2ncnc3[nH]cnc23)c1F)c1cccs1 | 402 nM | 57 | 0.5 nM | 7 nM | 1 nM |
| O=S(=O)(Nc1ccc(F)c(Nc2ncccc2-c2ncnc3[nH]cnc23)c1F)N1CCOCC1 | 3580 nM | 12 | 102 nM | 293 nM | 62 nM |
| CCC(C)S(=O)(=O)Nc1ccc(F)c(Nc2ncccc2-c2ncnc3[nH]cnc23)c1F (stereo not given) | 778 nM | 29 | 38 nM | 27 nM | 7 nM |
| CC(C)CS(=O)(=O)Nc1ccc(F)c(Nc2ncccc2-c2ncnc3[nH]cnc23)c1F | 1450 nM | 85 | 16 nM | 17 nM | 6 nM |

| Structure (SMILES) | EC50 [1] | Ratio (MIA PaCa-2) | IC50 [2] | IC50 [3] | IC50 [4] |
| --- | --- | --- | --- | --- | --- |
| O=S(=O)(Nc1ccc(F)c(Nc2ncccc2-c2ncnc3[nH]cnc23)c1F)c1cn[nH]c1 | 807 nM | 135 | 1 nM | 6 nM | 0.2 nM |
| O=S(=O)(Nc1ccc(F)c(Nc2ncccc2-c2ncnc3[nH]cnc23)c1F)C1CCCCC1 | 4370 nM | 109 | 51 nM | 40 nM | 18 nM |
| CCCC(C)S(=O)(=O)Nc1ccc(F)c(Nc2ncccc2-c2ncnc3[nH]cnc23)c1F (stereo not given) | 8090 nM | 62 | 112 nM | 130 nM | 18 nM |
| CC(C)(C)CS(=O)(=O)Nc1ccc(F)c(Nc2ncccc2-c2ncnc3[nH]cnc23)c1F | 202 nM | 3 | 5 nM | 63 nM | 6 nM |
| O=S(=O)(Nc1ccc(F)c(Nc2ncccc2-c2ncnc3[nH]cnc23)c1F)c1ccccc1F | 873 nM | 73 | 10 nM | 12 nM | 3 nM |
| Cn1cc(S(=O)(=O)Nc2ccc(F)c(Nc3ncccc3-c3ncnc4[nH]cnc34)c2F)cn1 | 2220 nM | 3 | 19 nM | 710 nM | 8 nM |
| O=S(=O)(Nc1ccc(F)c(Nc2ncccc2-c2ncnc3[nH]cnc23)c1F)c1cccc(F)c1 | 1510 nM | 101 | 4 nM | 15 nM | 3 nM |
| O=S(=O)(Nc1ccc(F)c(Nc2ncccc2-c2ncnc3[nH]cnc23)c1F)C1CC1 | 2070 nM | 12 | 132 nM | 173 nM | 41 nM |
| O=S(=O)(Nc1ccc(F)c(Nc2ncccc2-c2ncnc3[nH]cnc23)c1F)N1CCCCC1 | 1220 nM | 19 | 38 nM | 65 nM | 15 nM |
| O=S(=O)(Nc1ccc(F)c(Nc2ncccc2-c2ncnc3[nH]cnc23)c1F)N1CC[C@@H](O)C1 | 7190 nM | 31 | 68 nM | 233 nM | 16 nM |
| O=S(=O)(Nc1ccc(F)c(Nc2ncccc2-c2ncnc3[nH]cnc23)c1F)N1CCNCC1 |  |  | > 1000 nM | 1000 nM | > 1000 nM |
| O=S(=O)(Nc1ccc(F)c(Nc2ncccc2-c2ncnc3[nH]cnc23)c1F)C1CCC1 | 1790 nM | 44 | 46 nM | 41 nM | 4 nM |
| O=S(=O)(Nc1ccc(F)c(Nc2ncccc2-c2ncnc3[nH]cnc23)c1F)c1ccc(F)cc1 | 5650 nM | 23 | 83 nM | 242 nM | 36 nM |
| O=S(=O)(CC(F)(F)F)Nc1ccc(F)c(Nc2ncccc2-c2ncnc3[nH]cnc23)c1F | 713 nM | 18 | 10 nM | 40 nM | 3 nM |
| CS(=O)(=O)Nc1ccc(F)c(Nc2ncccc2-c2ncnc3[nH]cnc23)c1F | 6690 nM | 19 | 412 nM | 356 nM | 360 nM |
| O=S(=O)(Cc1ccccc1)Nc1ccc(F)c(Nc2ncccc2-c2ncnc3[nH]cnc23)c1F | 5080 nM |  | 111 nM | > 1000 nM | 186 nM |
| CCN(C)S(=O)(=O)Nc1ccc(F)c(Nc2ncccc2-c2ncnc3[nH]cnc23)c1F | 1780 nM | 20 | 157 nM | 87 nM | 22 nM |
